Source: paper PMC3724985, “Isolation, biochemical characterization, and cloning of a bacteriocin from the poultry-associated Staphylococcus aureus strain CH-91” (Applied Microbiology and Biotechnology, 2012)
≈ marks a conversion by molar mass, not a printed value.

Assays:
staphopain C (StpC) = details: 30 μM, 100 mM bis-Tris pH 6.4 or Tris–HCl pH 7.5 with 5 mM cysteine hydrochloride and 5 mM EDTA, 1:20 by weight, 1 h at 37 °C; radial diffusion assay and HPLC
Experimental: For pH, temperature, and protease resistance assays, the residual activity of BacCH91 was determined using the radial diffusion assay (Lemos Miguel et al. [2008]). In brief, plates were prepared containing 200× diluted overnight culture of S. lutea ATCC 9341 in TSB agar (1 %, w/v). Wells (2.4 mm diameter) were cut in the agar and filled with 10 μl of the BacCH91 preparation for testing. Following overnight incubation at 37 °C, the residual activity was measured as the diameter of inhibition zones.
We evaluated the susceptibility of BacCH91 to proteolysis by aureolysin; staphopains A, B, and C; V8 peptidase (Biocentrum); bovine alpha-chymotrypsin and TPCK-treated trypsin (Sigma); human elastase and cathepsin G (Biocentrum); pepsin from porcine gastric mucosa (Sigma); and proteinase K (A&A Biotechnology). […] The residual activity was determined with the radial diffusion assay using S. lutea as an indicator strain, and the bacteriocin molecule integrity was assessed using HPLC. […]

[1] = system: Staphylococcus intermedius ATCC 29663; format: cell-based

Q: With `C/C=C(\NC(=O)[C@H](CCCCN)NC(=O)CNC(=O)[C@@H]1CS[C@@H](C)[C@@H](NC(=O)[C@@H]2CSC[C@@H](NC(=O)/C(=C/C)NC(=O)[C@@H](N)[C@@H](C)CC)C(=O)N[C@@H](Cc3ccccc3)C(=O)N[C@@H]([C@@H](C)CC)C(=O)NCC(=O)N2)C(=O)N2CCC[C@H]2C(=O)NCC(=O)N1)C(=O)NCC(=O)N[C@@H]1CSC[C@@H]2NC(=O)[C@H](Cc3ccccc3)NC(=O)[C@@H](CS/C=C\NC2=O)NC(=O)[C@H](CC(N)=O)NC(=O)[C@H](Cc2ccccc2)NC1=O` [BacCH91] as the compound, how does the “effect of StpC on BacCH91” value (staphopain C (StpC)) read?
A: not affected

Q: And the MIC [1]?
A: 1.6 µM (≈ 3.32 µg/mL)
